{"source": "patent US12551577B2", "about": "“7-ethyl-10-hydroxycamptothecin drug precursor with fluorescence activity, and preparation method and use thereof” (SOOCHOW UNIVERSITY, priority 2021, dated 2026)", "experiment": "Solubility in chloroform by weight loss method", "assay_type": "physicochemical", "conditions": "2 mg in 300 μL chloroform", "description": "The weights of the two centrifuge tubes were recorded on an analytical balance, respectively. […] 300 μL of chloroform was added to the centrifuge tube, shaken, and centrifuged. […] The solubility of different compounds in chloroform was estimated by the weight loss method (where the specific operation includes pipetting the solution, and lyophilizing the remaining solid and weighing).", "data": [{"compound": "CCc1c2c(nc3ccc(O)cc13)-c1cc3c(c(=O)n1C2)COC(=O)[C@]3(O)CC", "note": "[SN38, 7-Ethyl-10-hydroxycamptothecin]", "values": [{"measurement": "solubility in chloroform", "value": "hardly soluble"}]}]}
